For series [1], the system named is alkaline phosphatase. The experiment in a line: Alkaline phosphatase experiment, seventh week: 1:100 vs 1:1000 dilution, room temperature vs 37° C. Conditions: for OD405 reading, 1:1000 ethanol solvent condition (FIG. 9B): 4-hour exposure, 1-hour PNPP.
Procedure: Preparation • 1. Alkaline phosphatase reaction reagent • a. 1:100 • i. PBS: Take 400 μL of AP (1:10) stock solution, add to 3.6 mL PBS. Vortex mix and then invert to mix 10 times • ii. […] Vortex mix and then invert to mix 10 times • b. 1:1000 • i. PBS: Take 400 μL of AP (1:100) stock solution, add to 3.6 mL PBS. Vortex mix and then invert to mix 10 times • ii. […] Vortex mix and then invert to mix 10 times • 2. Prepare 0.5 mL microcentrifuge tubes for dosing • a. One set for room temperature, one set for 37° C. • 3. Prepare 96-well plates for PNPP reading (3 wells for each test chemical) • a. Aliquot with 200 μL PNPP Conditions • 1. 1:100 in PBS at RT • 2. […] 1:100 in PBS at 37° C. • 4. […] 1:1000 in PBS at RT • 6. […] 1:1000 in PBS at 37° C. • 8. […] Procedure • 1. In each microcentrifuge tube for each condition, add 180 μL of the corresponding AP reaction reagent • 2. Add 20 μL of the test chemical to each microcentrifuge tube • 3. Incubate for 4 hours (one set at room temperature; one set at 37° C.) • 4. To prepared 96-well plates with 200 μL PNPP aliquoted, add 20 μL of each microcentrifuge tube to the corresponding well • 5.
The subject of series [2] is alkaline phosphatase. Type of series: biochemical. How it is done: New stocks were made the of the 1:100 alkaline phosphatase reaction reagents.
The conditions included: 1:100 dilution of alkaline phosphatase reaction reagent with two solvents (buffered saline and ethanol), dosing in 0.5 mL microcentrifuge tubes with 20 μL of chemical added to 180 μL of reaction reagent, and incubating with p-Nitrophenyl phosphate disodium salt (PNPP) substrate for 1-hour.

For series [3], the system named is alkaline phosphatase. In kind it is biochemical. Conditions: 3-hour exposure.
Another series has as its system skin. Conditions: cited from earlier work.
The conditions of series [4]: cited from earlier work.
Series [5] has as its system alkaline phosphatase. Conditions: 30 μL chemical in 300 μL reagent 1:100, 4 hours room temperature, 3 mL PNPP 1 hour.
Procedure: We changed the test chemical dosage to 30 μL and the alkaline phosphatase reaction reagent to 300 μL, but kept the incubation to 4 hours at room temperature.
PBS: Take 4 mL of AP (1:10) stock solution, add to 36 mL PBS. Vortex mix and then invert to mix 10 times • ii. […] Vortex mix and then invert to mix 10 times • b. PBS (lx) • c. […] Prepare 4 mL glass vials for dosing • a. Four sets • i. R1+ (PBS-AP) • ii. R1− (PBS) • iii. […] Prepare 96-well plates for PNPP reading (3 wells for each test chemical) Procedure • 1. Aliquot 300 μL of each reaction reagent to 4 mL glass vials. • 2. Add 30 μL of the test sample to each 4 mL glass vial. • 3. Incubate at room temperature for 4 hours. • 4. Aliquot 3 mL of PNPP to each 4 mL glass vial, let sit for 1 hr. • a. Aliquot 750 μL into the 4 mL glass vial to stop the reaction. • 5.
For series [6], the system named is alkaline phosphatase. Type of series: biochemical. Conditions: PBS; 18 hours room temperature, PNPP 1 hour. An excerpt:
Our next study compared different dilutions of the original alkaline phosphatase source (1:10 [Activity: 1,000 units] and 1:100 [100 units]) and two sources of alkaline phosphatase, both purchased from Sigma Aldrich (St. Louis, MO). […] The five conditions for this study included original alkaline phosphatase (1:1), original alkaline phosphatase (1:10), original alkaline phosphatase (1:100), new alkaline phosphatase (1:1), and the blanks (phosphate buffered saline (PBS)). […] The two controls contained ink to determine if there would be any background effect.
Preparation • 1. Alkaline phosphatase reaction reagent • a. Original AP • i. Add 1 mL PBS into AP vial, pipette re-pipette 10 times, then invert with cap on, to mix well. Take this 1 mL and add to 50 mL conical tube filled with 40 mL PBS. Invert to mix 10 times, vortex mix, let sit 2 minutes, invert to mix again 10 times • ii. Prepare 2 more 50 mL conical tubes • 1. 1:10 • a. […] 1:100 • a. Take 4 mL of solution made above, add to 36 mL PBS. […] New AP • i. Add 400 mg into a 50 mL conical tube filled with 40 mL PBS. Invert to mix 10 times, vortex mix, let sit 2 minutes, invert to mix 10 more times. Check to make sure all suspended. If not, vortex mix and invert until fully suspended. • 2. Prepare 24-well plates • 3. […] Aliquot with 200 μL PNPP Conditions • 1. Old AP • 2. Old AP (1:10) • 3. Old AP (1:100) • 4. New AP • 5. Blank (PBS only) Procedure • 1. 24-well plates • a. Add 1 mL (using P1000, blue tips) of the prepared PBS-AP to the plate (for each condition) • b. Add 100 μL of the test material to the well, mix with the same pipette tip, dispose and repeat for the rest of the test materials • c. Wrap the plate in saran wrap and place into the container • d. […] To the prepared 96-well plate with 200 μL PNPP or PBS, add 20 μL from the 24-well plate • 3. Incubate for 1 hour • 4.

A further series deals with porcine skin. Conditions: R 1 and 2. How it is done:
Our initial studies involved using fresh and frozen porcine skin “buttons”. These buttons were punched out of porcine skin (Spear Products, Cooopersburg, PA) using a […] biopsy punch tool. Three different kinds of skin buttons were prepared from fresh porcine skin, frozen porcine skin, and frozen porcine skin with the fatty layer removed. […] The next day, the tubes were taken out and vortexed and 500 μL of the solution was aliquoted into cuvettes to read at three different optical density wavelengths (OD190, OD290, OD300) to evaluate the best response.
Skin Preparation • 1. Thaw 2 pieces of frozen porcine skin • 2. Punch out buttons: 24 buttons in each tube filled with 40 mL PB S-Azide 96-well plate Preparation • 1. Plate layout for dosing:
Procedure • 1. Dose each tissue with 140 μL of test chemical • 2. […] Take out of incubator and vortex pulse 3× • 2. Aliquot 500 μL to cuvette and read results at OD190, OD290, and OD300
There were three readings done at an optical density of 190, 290, and 300 nm to evaluate the best response. […] To address the variable exposure conditions, our next studies involved placing a larger porcine skin section into a holder that exposes only the epidermis side with no potential for test chemical exposure from the backside or through the sides.

The subject of another series is phosphatase. Type of series: biochemical, porcine. How it is done: Our next studies involved applying the test substance (500 μL) directly to the epidermis side of previously frozen porcine skin (Spear Products, Coopersburg, PA) that is placed in a holder that only exposes the epidermis side for 30 minutes, adding phosphate buffered saline (PBS) with added sodium azide (metabolic inhibitor that ensure no viable tissue), then aliquoting into cuvettes to read at an optical density of 300 nm. […] So, at the end of the initial studies described above, almost out of frustration, we tried to probe for released phosphatase activity using p-Nitrophenyl phosphate disodium salt (PNPP; Sigma Aldrich, St. Louis, MO) substrate solution to detect any presence of phosphatase.
Preparation • 1. Thaw 2 pieces of frozen porcine skin • a. Punch out as many skin discs and mount in holders • 2. Label cuvettes (3 for each chemical) Procedure • 1. Add 500 μL of test chemical to holder; incubate at room temperate for 30 minutes • 2. After 30 minutes, add 2 mL of PBS-Azide to both the holder containing the test chemical; forcefully pipette and re-pipette 10 times • 3. From the holder, aliquot 400 μL into 3 cuvettes; forcefully pipette and re-pipette 3 times before dispensing into cuvettes Reading Results • 1. Measure at OD300 for all cuvettes
Skin corrosion by GHS Category 1 dermal corrosive chemicals results in the disintegration of the epidermis into the dermis.

Series [7] relates to alkaline phosphatase. The series is described as follows: Alkaline phosphatase experiment, ninth week: microcentrifuge tubes vs glass vials. Type of series: biochemical. Conditions: ethanol alkaline phosphatase 1:100, 4 hours room temperature, 1-hour PNPP. How it is done:
Feb. […] The test chemicals included water, acetic acid, heptanal, dimethylisopropylamine, n-Heptylamine, and N,N-Dimethylbenzylamine. We believe that when tilting the glass vial to mix by pipette/re-pipette, the alkaline phosphatase is sticking to the sides and therefore when the p-Nitrophenyl phosphate disodium salt (PNPP) is added, it immediately detects alkaline phosphatase presence and turns intensely yellow. In addition, by sticking to the side of the vial, since the volume of the test chemical added is low, the chance the test chemical interacting with the alkaline phosphatase might be less, therefore resulting in an intensely yellow enzyme reaction product. This study focused on the two stocks (one from previous experiment and a freshly made one) 1:100 concentration ethanol alkaline phosphatase reaction reagent. […] For the 4 mL vials, 30 μL of the test chemical is added to 300 μL of the alkaline phosphatase reaction reagent and incubated for 4 hours at room temperature.

The mark [8] stands for this setting: skin, chemical lists of the experiments.
Where [9] appears, read: frozen porcine skin with fat layer removed.

Several values for one entry are separate records, joined by “and”; a condition that tells them apart may be missing. Equal entries are not always repeated. Where two headings read alike, the source gives them in different places.

As to `CSc1ccc(C=O)cc1`, in the series on alkaline phosphatase [1] (37° C.), the “OD405 reading, 1:100 ethanol solvent condition, 37° C.” value was 0.857. Besides, the “OD405 reading, 1:100 ethanol solvent condition, room temperature” value in the series with alkaline phosphatase [1] (room temperature) is on record as 2.243. For the same compound, in the series on alkaline phosphatase [2], the “A2 - Results AVG” value is recorded as 3.333, the “A2 - Results R1” value turned out to be 3.379 and the “A2 - Results R3” value was determined as 3.266.
On to `ClCCCCBr` [1-Bromo-4-chlorobutane], for which, in the series on alkaline phosphatase [1], the “OD405 reading, 1:1000 ethanol solvent condition (FIG. 9B)” value is 0.799. The “OD405 reading, ethanol solvent, 10 μL dose, 30-minute PNPP (FIG. 7A)” value in the series on alkaline phosphatase [3] (10 μL into 90 μL) was found to be 3.349. The “OD405 reading, ethanol solvent, 50 μL dose, 30-minute PNPP (FIG. 7A)” value with alkaline phosphatase [3] (50 μL into 50 μL) amounted to 0.700. Besides, in the series with alkaline phosphatase [2], the “A2 - Results AVG” value was 2.849, the “A2 - Results R1” value is 2.948 and the “A2 - Results R3” value was 2.869.
On to `CC(C)N(C)C` [Dimethylisopropylamine], for which the “in vivo GHS” value in the series with skin (setting [8]) is “Cat. 1B/1C”. Besides, the solubility with water result in series [4] is given as “mostly insoluble with water”. In the series with alkaline phosphatase [5], the “OD405 readings, buffered saline alkaline phosphatase reaction reagent, glass vials (FIG. 11B)” value was 3.354 and 3.466 and 3.502; the “OD405 readings, ethanol alkaline phosphatase reaction reagent, glass vials (FIG. 11D)” value is 2.926 and 2.922 and 2.852. In addition, in the series with alkaline phosphatase [2], the “A2 - Results AVG” value is given as 0.244, the “A2 - Results R1” value stood at 0.226 and the “A2 - Results R3” value is on record as 0.295. The “OD405 readings, original alkaline phosphatase 1:100 (FIG. 6D)” value (“OD405 readings … (FIG. 6D)” below) in the series on alkaline phosphatase [6] was 3.466 and 3.502.
With `CCCCCCC=O` [Heptanal], in the series with skin (rabbit, in vivo), the Corrosive result is reported as “No” and the “in vivo GHS” value was “Cat. 2”. Moreover, in the series with alkaline phosphatase [2], the “A2 - Results AVG” value was 2.408, the “A2 - Results R1” value worked out at 2.730 and the “A2 - Results R3” value is 2.098. Moreover, the OD190 with porcine skin (fresh porcine skin, 140 μL test chemical, >3A = outside readable range) is 0.486 and 0.365. Moreover, in the series with porcine skin (fresh porcine skin), the OD290 was 0.170 and 0.165; the OD300 is 0.123. In the series with porcine skin (setting [9]), the OD190 is 0.144 and 0.149; the OD290 is 0.111 and 0.140; the OD300 is 0.040 and 0.050. Besides, in the series with porcine skin (frozen porcine skin), the OD190 is 0.362 and 0.371; the OD290 was 0.245 and 0.241; the OD300 was 0.154 and 0.137. Further, the “percent of phosphatase measured (optical density compared to the naïve condition), average” value in the series on phosphatase (average of two readings) stood at 97.2%. Moreover, the “percent of phosphatase measured (optical density compared to the naïve condition)” value in the series on phosphatase (single readings) is 100.0% and 94.4%. Further, in the series on alkaline phosphatase [7], the “OD405 readings, glass vials (FIG. 12B)” value was 0.804 and 0.852 and 0.901; the “OD405 readings, microcentrifuge tubes (FIG. 12B)” value was 2.360 and 2.539 and 2.690.
With `CN(C)Cc1ccccc1` [N,N-Dimethylbenzylamine], the “in vivo GHS” value in the series on skin (rabbit, in vivo) is recorded as “Cat. 1C”. The solubility with water result in series [4] is recorded as “mostly insoluble with water”. Moreover, in the series with alkaline phosphatase [1], the “OD405 reading, 1:1000 ethanol solvent condition (FIG. 9B)” value worked out at 0.587. Also, in the series with alkaline phosphatase [5], the “OD405 readings, buffered saline alkaline phosphatase reaction reagent, glass vials (FIG. 11B)” value was 3.360 and 3.238 and 3.273; the “OD405 readings, ethanol alkaline phosphatase reaction reagent, glass vials (FIG. 11D)” value is 3.429 and 3.249 and 3.164. In the series with alkaline phosphatase [2], the “A2 - Results AVG” value was determined as 0.570, the “A2 - Results R1” value is given as 0.588 and the “A2 - Results R3” value is recorded as 0.539. The “OD405 readings … (FIG. 6D)” value with alkaline phosphatase [6] is 3.431 and 3.502 and 3.61.
With `CCCCCCCN` [n-Heptylamine], in the series on skin (setting [8]), the “in vivo GHS” value is recorded as “Cat. 1B/1C”. Also, in series [4], the solubility with water entry is given as “mostly insoluble with water”. Moreover, in the series on alkaline phosphatase [2], the “A2 - Results AVG” value is reported as 0.175, the “A2 - Results R1” value is on record as 0.170 and the “A2 - Results R3” value was found to be 0.193. In addition, in the series with alkaline phosphatase [6], the “OD405 readings … (FIG. 6D)” value is 3.244 and 3.057 and 3.152.

These data come from patent US12559784B2 (priority 2023, dated 2026).
